Experiments:
Menin-MLL1 = target: T1, Menin-MLL1 (Homo sapiens, UniProt O00255); experiment: Menin-MLL1 inhibition assay (fluorescence polarization, Menin protein + FAM-MLL peptide); format: binding; details: Menin (2-610) isoform 2, FAM-labelled MLL peptide, mP readout; read-out: Biochemical assay Menin-MLL1 IC50
T1 construct: Menin (2-610) isform2; purchased ChemPartner 2020111101
T1 sequence (O00255 2-610): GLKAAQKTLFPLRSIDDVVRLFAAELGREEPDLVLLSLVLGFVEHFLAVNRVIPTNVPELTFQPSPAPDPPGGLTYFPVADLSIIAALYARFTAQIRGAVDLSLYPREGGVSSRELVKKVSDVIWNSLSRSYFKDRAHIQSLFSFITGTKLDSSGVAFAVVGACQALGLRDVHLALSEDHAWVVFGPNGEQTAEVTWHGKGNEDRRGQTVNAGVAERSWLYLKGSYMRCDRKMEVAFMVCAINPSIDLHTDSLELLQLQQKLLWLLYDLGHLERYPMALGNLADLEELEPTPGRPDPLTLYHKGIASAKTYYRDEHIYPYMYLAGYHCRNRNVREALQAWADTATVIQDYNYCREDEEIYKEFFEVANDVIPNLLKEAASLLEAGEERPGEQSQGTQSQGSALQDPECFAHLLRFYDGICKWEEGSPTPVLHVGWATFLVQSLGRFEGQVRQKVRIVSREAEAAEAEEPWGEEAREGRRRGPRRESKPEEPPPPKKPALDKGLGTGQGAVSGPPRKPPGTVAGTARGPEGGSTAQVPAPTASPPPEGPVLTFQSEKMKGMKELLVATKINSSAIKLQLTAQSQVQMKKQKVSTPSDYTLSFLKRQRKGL
Description: 1× assay bu9ffer (Tris 7.5 50 mM, NaCl 50 mM, DTT 1 mM, Tween-20 0.01%) was prepared and test compounds solution (10 mM in DMSO, Sigma, Cat. No. 34869) were transferred to assay plate (384-well plate, Perkin Elmer, Cat. No. 6007279) by Echo. The final fraction of DMSO is 1%. 20 nM of Menin protein (Menin (2-610) isform2, ChemPartner, Cat. No. 2020111101) in 1× assay buffer was added to prepare 2× enzyme solution. Then 10 nM of MLL-peptide (Ac-SRWRFPARPGTGRR-Ahx-Ahx-K(FAM)-NH2, GL Biochem (Shanghai)), Cat. No. 833831/202009220104) in 1× assay buffer was added to prepare 2× substrate solution. 10 μL of 2× enzyme solution was transferred to assay plate or 10 μL of 1× assay buffer for low control group. 10 μL of 2× substrate solution was added to each well to start reaction. mP data on Envision (Ex480/Em535(s), Em535(p)) was collected.
Compound potencies were determined by first calculating % inhibition at each compound concentration according to equation 1:
Inhibition %=(Max−Signal)/(Max−Min)*100 (Equation 1)
Y=Bottom+(Top-Bottom)/(1+(IC50/X)[…]), where Y is % inhibition and X is compound concentration (Equation 2)

MV-4-11 cells = experiment: Cell proliferation assay (CellTiter-Glo), MV-4-11; format: cell-based, human; details: Homo sapiens, MV4-11, 96 h; MV-4-11 (MLL-AF4), 4 days incubation; read-out: Cell antiproliferation assay MV-4-11 IC50
Description: The antiproliferative activity of test compounds was assessed in human leukemia cell lines. The cell line MV4-11, MOLM13 and OCI-AML3, which expresses the MLL fusion protein MLL-AF4, MLL-AF9 and carry the NPM1c gene mutation, respectively, were tested. HL-60 was used as a control cell line containing two MLL wildtype alleles in order to exclude compounds that display general cytotoxic effect. MV4-11 cells were cultured in IMDM supplemented with 10% FBS, MOLM13 and OCI-AML3 cells were cultured in RPMI1640 supplemented with 20% FBS, and HL-60 cells were cultured in IMDM supplemented with 20% FBS. Corresponding cells (MV4-11, MOLM13, OCI-AML3 or HL-60 cell line) were seeded in 100 uL medium per well in 96-well plate (white wall with clear bottom, tissue culture treated, Corning, Cat. No. CLS3903; Lot.No. 30419025). Plates were placed in the CO2 incubator overnight. Compounds solution (2 mM starting, 4-fold serial dilution) were prepared and added to the wells containing 100 μL of the culture medium with HPD300 according to the plate map and centrifuge at 1000 rpm for 1 minutes (200-fold dilution totally). MV4-11, MOLM13, OCI-AML3 and HL-60 cells were incubated with the compounds for 4, 12, 5 and 4 days, respectively, under 5% CO2 at 37° C., respectively. 100 μL of CellTiter-Glo reagent (Promega, Cat. No. G7573, Lot. No. 0000416710) was added to the assay plate by Multidrop Combi instrument, contents were mixed for 10 minutes on an orbital shaker to induce cell lysis. After incubation at room temperature for 10 mins, clear bottom with white back seal was pasted and luminescence with Envision was read.

SMILES	IC50 (Menin-MLL1) [nM]	IC50 (MV-4-11 cells) [nM]
CCN(C(=O)c1cc(F)ccc1Oc1nncnc1N1CC2(CCN(C(=O)[C@H]3NC[C@H]4CC(F)(F)C[C@H]43)CC2)C1)C(C)C (single isomer, unassigned) [Example 98a]	5.4	333
CCN(C(=O)c1cc(F)ccc1Oc1nncnc1N1CC2(CCN(C(=O)[C@@H]3NC[C@@H]4CC(F)(F)C[C@@H]43)CC2)C1)C(C)C (single isomer, unassigned) [Example 98b]	22	2640
CCN(C(=O)c1cc(F)ccc1Oc1nncnc1N1CC2(CCN(C(=O)C3NC[C@H]4CC(F)(F)C[C@@H]34)CC2)C1)C(C)C (single isomer, unassigned) [Example 98c]	44.5	–
CCN(C(=O)c1cc(F)ccc1Oc1nncnc1N1CC2(CCN(C(=O)[C@H]3NC[C@@H]4CC(F)(F)C[C@@H]43)CC2)C1)C(C)C (single isomer, unassigned) [Example 98d]	2.3	29.5
CCN(C(=O)c1cc(F)ccc1Oc1cncnc1N1CC2(CCN(C(=O)[C@@H]3C[C@H](F)CN3)CC2)C1)C(C)C [Example 3]	20.9	329
CCN(C(=O)c1cc(F)ccc1Oc1cncnc1N1CC2(CCN(C(=O)[C@@H]3CCCCN3)CC2)C1)C(C)C [Example 4]	5	33.1
CCN(C(=O)c1cc(F)ccc1Oc1cncnc1N1CC2(CCN(C(=O)[C@@H]3C[C@@H](O)CN3)CC2)C1)C(C)C [Example 5]	7	440
CCN(C(=O)c1cc(F)ccc1Oc1cncnc1N1CC2(CCN(C(=O)[C@@H]3C[C@]4(C)C[C@@H]4N3)CC2)C1)C(C)C [Example 6]	6	33.8
CCN(C(=O)c1cc(F)ccc1Oc1cncnc1N1CC2(CCN(C(=O)[C@H]3NCC[C@H]3O)CC2)C1)C(C)C [Example 7]	7.5	220
CCN(C(=O)c1cc(F)ccc1Oc1cncnc1N1CC2(CCN(C(=O)[C@H]3NCC[C@@H]3O)CC2)C1)C(C)C [Example 8]	5.5	332
CCN(C(=O)c1cc(F)ccc1Oc1cncnc1N1CC2(CCN(C(=O)[C@@H]3C[C@@]4(C)C[C@H]4N3)CC2)C1)C(C)C [Example 9]	12.9	40.7
CCN(C(=O)c1cc(F)ccc1Oc1cncnc1N1CC2(CCN(C(=O)[C@@H]3C[C@@H](OC(F)F)CN3)CC2)C1)C(C)C [Example 10]	8.3	238
CCN(C(=O)c1cc(F)ccc1Oc1cncnc1N1CC2(CCN(C(=O)[C@@H]3C[C@]4(CO)CC4N3)CC2)C1)C(C)C (stereo partly shown) [Example 11]	6.3	128
CCN(C(=O)c1cc(F)ccc1Oc1cncnc1N1CC2(CCN(C(=O)[C@@H]3C[C@](F)(CF)CN3)CC2)C1)C(C)C [Example 12]	4.7	68.2
CCN(C(=O)c1cc(F)ccc1Oc1cncnc1N1CC2(CCN(C(=O)[C@@H]3C[C@]4(COC)CC4N3)CC2)C1)C(C)C (stereo partly shown) [Example 13]	16.7	–
CCN(C(=O)c1cc(F)ccc1Oc1cncnc1N1CC2(CCN(C(=O)[C@@H]3CC(C)(O)CN3)CC2)C1)C(C)C (stereo partly shown) [Example 14]	9.2	–
CCN(C(=O)c1cc(F)ccc1Oc1cncnc1N1CC2(CCN(C(=O)[C@@H]3C[C@@H](S(C)(=O)=O)CN3)CC2)C1)C(C)C [Example 15]	55.2	–
CCN(C(=O)c1cc(F)ccc1Oc1cncnc1N1CC2(CCN(C(=O)[C@@H]3C[C@H](NS(C)(=O)=O)CN3)CC2)C1)C(C)C [Example 16]	22.3	–

SMILES	IC50 (Menin-MLL1) [nM]	IC50 (MV-4-11 cells) [nM]
CCN(C(=O)c1cc(C#N)ccc1Oc1cncnc1N1CC2(CCN(C(=O)[C@@H]3C[C@@H](F)CN3)CC2)C1)C(C)C [Example 17]	25.3	317
CCN(C(=O)c1cc(F)ccc1Oc1cncnc1N1CC2(CCN(C(=O)[C@@H]3C[C@@H](NS(C)(=O)=O)CN3)CC2)C1)C(C)C [Example 18]	13.5	–
CCN(C(=O)c1cc(Cl)ccc1Oc1cncnc1N1CC2(CCN(C(=O)[C@@H]3C[C@@H](F)CN3)CC2)C1)C(C)C [Example 19]	5	40.2
CCN(C(=O)c1cc(F)ccc1Oc1cncnc1N1CC2(CCN(C(=O)[C@@H]3C[C@@H](F)CN3)CC2)C1)C1CC1 [Example 20]	10.1	267
CCN(C(=O)c1cc(F)ccc1Oc1cncnc1N1CC2(CCN(C(=O)[C@@H]3CCCN3)CC2)C1)C(C)C [Example 21]	5.8	42.2
CCN(C(=O)c1cc(F)ccc1Oc1cncnc1N1CC2(CCN(C(=O)[C@@H]3C[C@]4(CN3)CC4(F)F)CC2)C1)C(C)C [Example 23]	8.7	127
CCN(C(=O)c1cc(F)ccc1Oc1cncnc1N1CC2(CCN(C(=O)[C@@H]3C[C@@]4(CN3)CC4(F)F)CC2)C1)C(C)C [Example 24]	8	102
CCN(C(=O)c1cc(F)ccc1Oc1cncnc1N1CC2(CCN(C(=O)[C@@H]3CC[C@@H](F)CN3)CC2)C1)C(C)C [Example 25]	8.4	232
CCN(C(=O)c1cc(F)ccc1Oc1cncnc1N1CC2(CCN(C(=O)[C@@H]3COCCN3)CC2)C1)C(C)C [Example 26]	10.2	647
CCN(C(=O)c1cc(F)ccc1Oc1cncnc1N1CC2(CCN(C(=O)[C@@H]3C[C@@H](C#N)CN3)CC2)C1)C(C)C [Example 27, 2-((4-(7-((2S,4R)-4-cyanopyrrolidine-2-carbonyl)-2,7-diazaspiro[3.5]nonan-2-yl)pyrimidin-5-yl)oxy)-N-ethyl-5-fluoro-N-isopropylbenzamide]	18.4	420
CCN(C(=O)c1cc(F)ccc1Oc1cncnc1N1CC2(CCN(C(=O)[C@@]3(C)CCCN3)CC2)C1)C(C)C [Example 29]	7	271
CCN(C(=O)c1cc(F)ccc1Oc1cncnc1N1CC2(CCN(C(=O)[C@@H]3C[C@@H]4C[C@@H]4N3)CC2)C1)C(C)C [Example 30]	4.7	33.8
[2H]c1c(F)cc(C(=O)N(CC)C(C)C)c(Oc2cncnc2N2CC3(CCN(C(=O)[C@@H]4C[C@@H](F)CN4)CC3)C2)c1[2H] [Example 31]	6.7	41
CCN(C(=O)c1cc(F)ccc1Oc1cncnc1N1CC2(CCN(C(=O)[C@@H]3C[C@H]4C[C@H]4N3)CC2)C1)C(C)C [Example 32]	6.5	75.4
CCN(C(=O)c1cc(F)ccc1Oc1cncnc1N1CC2(CCN(C(=O)[C@H]3NCc4ccccc43)CC2)C1)C(C)C [Example 33]	4.5	19.3
CCN(C(=O)c1ccccc1Oc1cncnc1N1CC2(CCN(C(=O)[C@@H]3C[C@@H](F)CN3)CC2)C1)C(C)C [Example 36]	4	66
CCN(C(=O)c1cc(F)ccc1Oc1cncnc1N1CC2(CCN(C(=O)[C@@H]3C[C@@H](F)CN3)C2)C1)C(C)C [Example 37]	15.4	–
CCN(C(=O)c1cc(F)ccc1Oc1cncnc1N1CC2(CCN(C(=O)[C@@H]3CSCN3)CC2)C1)C(C)C [Example 52]	21	–

Source: patent US20240317748A1, “CARBONYL SUBSTITUTED DIAZASPIRO COMPOUNDS AND ITS USE” (BIONOVA PHARMACEUTICALS (SHANGHAI) LIMITED, priority 2021, published 2024)
